Measurements reported in the supplement of paper PMC10307832.

Assays:
Assay in all cases: relative viability (nuclei count vs DMSO), 5 days (fraction); higher = more cells survive
AZD8055 + Navitoclax = compound: COc1ccc(-c2ccc3c(N4CCOC[C@@H]4C)nc(N4CCOC[C@@H]4C)nc3n2)cc1CO [AZD8055] + CC1(C)CCC(c2ccc(Cl)cc2)=C(CN2CCN(c3ccc(C(=O)NS(=O)(=O)c4ccc(N[C@H](CCN5CCOCC5)CSc5ccccc5)c(S(=O)(=O)C(F)(F)F)c4)cc3)CC2)C1 [Navitoclax] (partner 0.5 µM)
How it was run: (§1)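 Relative viability is defined as nuclei in treated wells over nuclei in vehicle wells. Duplicate plates were run and medians reported. Lung cancer cell lines in 1536-well plates were dosed by pin tool one day after seeding, with one drug or with a fixed anchor-drug dose plus five library-drug doses (not always all listed) in √10 steps, and nuclei were counted after 5 days.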

AZD8055 + Luminespib = compound: COc1ccc(-c2ccc3c(N4CCOC[C@@H]4C)nc(N4CCOC[C@@H]4C)nc3n2)cc1CO [AZD8055] + CCNC(=O)c1noc(-c2cc(C(C)C)c(O)cc2O)c1-c1ccc(CN2CCOCC2)cc1 [Luminespib] (partner 0.01 µM)
How it was run: as §1

AZD8055 + Foretinib = compound: COc1ccc(-c2ccc3c(N4CCOC[C@@H]4C)nc(N4CCOC[C@@H]4C)nc3n2)cc1CO [AZD8055] + COc1cc2c(Oc3ccc(NC(=O)C4(C(=O)Nc5ccc(F)cc5)CC4)cc3F)ccnc2cc1OCCCN1CCOCC1 [Foretinib] (partner 0.25 µM)
How it was run: as §1

AZD8055 + Linsitinib = compound: COc1ccc(-c2ccc3c(N4CCOC[C@@H]4C)nc(N4CCOC[C@@H]4C)nc3n2)cc1CO [AZD8055] + C[C@]1(O)C[C@@H](c2nc(-c3ccc4ccc(-c5ccccc5)nc4c3)c3c(N)nccn32)C1 [Linsitinib] (partner 1 µM)
How it was run: as §1

| Cell Line | relative viability (AZD8055 + Navitoclax; first compound 0.01 µM) | relative viability (AZD8055 + Navitoclax; first compound 0.03162 µM) | relative viability (AZD8055 + Navitoclax; first compound 0.1 µM) | relative viability (AZD8055 + Navitoclax; first compound 0.3162 µM) | relative viability (AZD8055 + Navitoclax; first compound 1 µM) | relative viability (AZD8055 + Luminespib; first compound 0.01 µM) | relative viability (AZD8055 + Luminespib; first compound 0.03162 µM) | relative viability (AZD8055 + Luminespib; first compound 0.1 µM) | relative viability (AZD8055 + Luminespib; first compound 0.3162 µM) | relative viability (AZD8055 + Luminespib; first compound 1 µM) | relative viability (AZD8055 + Foretinib; first compound 0.01 µM) | relative viability (AZD8055 + Foretinib; first compound 0.03162 µM) | relative viability (AZD8055 + Foretinib; first compound 0.1 µM) | relative viability (AZD8055 + Foretinib; first compound 0.3162 µM) | relative viability (AZD8055 + Foretinib; first compound 1 µM) | relative viability (AZD8055 + Linsitinib; first compound 0.01 µM) | relative viability (AZD8055 + Linsitinib; first compound 0.03162 µM) | relative viability (AZD8055 + Linsitinib; first compound 0.1 µM) | relative viability (AZD8055 + Linsitinib; first compound 0.3162 µM) | relative viability (AZD8055 + Linsitinib; first compound 1 µM) |
| --- | --- | --- | --- | --- | --- | --- | --- | --- | --- | --- | --- | --- | --- | --- | --- | --- | --- | --- | --- | --- |
| NCI-H2405 | 0.939 | 0.93 | 0.708 | 0.392 | 0.291 | 0.757 | 0.564 | 0.536 | 0.289 | 0.279 | 1.03 | 0.977 | 0.816 | 0.432 | 0.381 | 0.802 | 0.621 | 0.477 | 0.333 | 0.331 |
| NCI-H3122 | 1.13 | 1.05 | 0.687 | 0.435 | 0.348 | 0.0869 | 0.101 | 0.114 | 0.0794 | 0.0854 | 0.97 | 1.02 | 1.05 | 0.396 | 0.401 | 0.995 | 0.823 | 0.547 | 0.384 | 0.299 |
| PC-3 [JPC-3] | 0.83 | 0.847 | 0.775 | 0.575 | 0.421 | 0.717 | 0.565 | 0.693 | 0.469 | 0.332 | 1.12 | 1.12 | 1.1 | 0.774 | 0.492 | 0.992 | 0.972 | 0.882 | 0.673 | 0.461 |
| PC-14 | 1.15 | 1.16 | 1.02 | 0.405 | 0.351 | 0.162 | 0.17 | 0.206 | 0.187 | 0.212 | 1.18 | 1.04 | 1.07 | 0.488 | 0.299 | 1.03 | 0.944 | 0.669 | 0.526 | 0.211 |
| RERF-LC-KJ | 0.925 | 0.838 | 0.586 | 0.428 | 0.333 | 1.19 | 1.14 | 0.853 | 0.475 | 0.473 | 0.963 | 0.754 | 0.771 | 0.535 | 0.392 | 0.86 | 0.739 | 0.597 | 0.44 | 0.352 |
| SK-LU-1 | 1.16 | 0.788 | 1.23 | 0.526 | 0.332 | 0.205 | 0.185 | 0.159 | 0.145 | 0.154 | 0.784 | 0.627 | 0.427 | 0.258 | 0.212 | 0.941 | 0.798 | 0.877 | 0.491 | 0.321 |
| SK-MES-1 | 1.05 | 1.25 | 0.818 | 0.404 | 0.342 | 0.371 | 0.503 | 0.185 | 0.182 | 0.213 | 0.849 | 0.819 | 0.81 | 0.408 | 0.329 | 1.06 | 0.932 | 0.743 | 0.447 | 0.313 |
| SW 1573 | 0.869 | 0.855 | 0.646 | 0.304 | 0.21 | 0.121 | 0.256 | 0.167 | 0.103 | 0.187 | 0.86 | 0.645 | 0.803 | 0.516 | 0.251 | 0.725 | 0.584 | 0.484 | 0.267 | 0.153 |
| UMC-11 | 0.295 | 0.277 | 0.248 | 0.173 | 0.134 | 1 | 0.659 | 0.477 | 0.229 | 0.268 | 1 | 0.8 | 0.555 | 0.292 | 0.297 | 0.995 | 0.884 | 0.539 | 0.251 | 0.266 |
